Assay results from patent publication US20230365592A1 (Agios Pharmaceuticals, Inc., priority 2022, published 2023).

Molecular target: T1, human PAH with the R408W mutation (Homo sapiens, UniProt P00439, R408W)
T1 construct: expressed in transfected cells
T1 sequence (P00439 1-452 R408W): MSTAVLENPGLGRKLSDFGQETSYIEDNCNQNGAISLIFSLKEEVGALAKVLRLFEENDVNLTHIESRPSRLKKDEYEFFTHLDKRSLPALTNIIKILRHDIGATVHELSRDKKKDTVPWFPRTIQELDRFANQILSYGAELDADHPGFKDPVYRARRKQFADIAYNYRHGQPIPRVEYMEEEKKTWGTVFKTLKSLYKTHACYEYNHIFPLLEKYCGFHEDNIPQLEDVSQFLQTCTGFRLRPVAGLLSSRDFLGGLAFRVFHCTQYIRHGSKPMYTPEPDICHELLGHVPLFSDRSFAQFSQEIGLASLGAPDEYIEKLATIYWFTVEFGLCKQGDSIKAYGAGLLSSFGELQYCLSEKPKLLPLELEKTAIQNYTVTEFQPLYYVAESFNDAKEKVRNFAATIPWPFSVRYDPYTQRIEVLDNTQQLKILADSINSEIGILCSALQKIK
Assay: Cell Based Phenylalanine Flux Assay;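 also: after compound treatment, cells received sepiapterin plus isotope-labelled Phenylalanine for 4 hours, then labelled Tyrosine in the medium was quantified, 10-point 2-fold dilution series run in duplicate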
Settings: A375 cells expressing R408W PAH; 24 hrs with compound, then 20 µM sepiapterin and 800 µM 13C9,15N-Phenylalanine for 4 hours; 13C-Tyrosine by LC-MS; average where tested multiple times; read-out: AC50

Q: With `CC(C)(C)c1nnc(C(=O)N2CCc3[nH]cnc3C2c2cc3cc(F)ccn3n2)o1` (stereo not shown) as the compound, how does the AC50 read?
A: 1 to 5 µM

Q: Which AC50 does the source give for `Cc1cccn2nc(C3c4nc[nH]c4CCN3c3nnc(-c4cccnn4)o3)cc12` (stereo not shown) here?
A: 1 to 5 µM

Q: `CC(C)(O)c1nnc(C(=O)N2CCc3[nH]cnc3C2c2cc3cccc(C(F)(F)F)n3n2)o1` (stereo not shown) was tested. Which AC50 did it give?
A: 1 to 5 µM

Q: Which AC50 does the source give for `Cc1cccc2cc(C3c4nc[nH]c4CCN3c3ncccn3)nn12` (stereo not shown) here?
A: 1 to 5 µM

Q: With `CN(C)C(=O)c1nnc(N2CCc3[nH]cnc3[C@H]2c2cc3c(C(F)(F)F)cccn3n2)o1` (single isomer, unassigned) as the compound, how does the AC50 read?
A: 1 to 5 µM

Q: `Fc1ncccc1-c1nnc(N2CCc3[nH]cnc3C2c2cc3c(C4CC4)cccn3n2)o1` (stereo not shown) was tested. Which AC50 did it give?
A: 1 to 5 µM

Q: How did the AC50 turn out when `CC(C)(O)c1ncc(C(=O)N2CCc3[nH]cnc3C2c2cc3ccccn3n2)o1` (stereo not shown) was run?
A: 1 to 5 µM

Q: Which AC50 does the source give for `Cc1cccn2nc(C3c4nc[nH]c4CCN3C(=O)c3oc(C(C)O)nc3C(F)F)cc12` (stereo not shown) here?
A: 1 to 5 µM

Q: With `Cc1ccn2nc(C3c4nc[nH]c4CCN3C(=O)c3nnc(-c4ccn(C)n4)o3)cc2c1` (stereo not shown) as the compound, how does the AC50 read?
A: 1 to 5 µM

Q: How did the AC50 turn out when `Cc1c(C2c3nc[nH]c3CCN2C(=O)c2nnc(C3CC3)o2)nn2ccccc12` (stereo not shown) was run?
A: 1 to 5 µM

Q: Which AC50 does the source give for `COCCNc1nnc(C(=O)N2CCc3[nH]cnc3C2c2cc3ccccn3n2)o1` (stereo not shown) here?
A: > 5 µM

Q: `FC(F)c1cccn2nc(C3c4nc[nH]c4CCN3c3nnc(-c4cccnn4)o3)cc12` (stereo not shown) was tested. Which AC50 did it give?
A: 1 to 5 µM

Same assay, conditions: A375 cells expressing human PAH R408W; 24 hrs compound incubation; 13C-Tyrosine by LC-MS; average where tested multiple times; read-out: AC50

Q: Which AC50 does the source give for `Fc1cccc(F)c1-c1nnc(N2CCc3[nH]cnc3[C@@H]2c2cc3cccc(C(F)(F)F)n3n2)o1` [Example 2132, (R)-2-(2,6-difluorophenyl)-5-(4-(7-(trifluoromethyl)pyrazolo[1,5-a]pyridin-2-yl)-1,4,6,7-tetrahydro-5H-imidazo[4,5-c]pyridin-5-yl)-1,3,4-oxadiazole] here?
A: 1 to 5 µM

Q: `Fc1ccc(-c2nnc(N3CCc4[nH]cnc4[C@H]3c3cc4cccc(Cl)n4n3)o2)cc1` [Example 2086, (S)-2-(4-(7-chloropyrazolo[1,5-a]pyridin-2-yl)-1,4,6,7-tetrahydro-5H-imidazo[4,5-c]pyridin-5-yl)-5-(4-fluorophenyl)-1,3,4-oxadiazole] was tested. Which AC50 did it give?
A: < 0.5 µM

Q: How did the AC50 turn out when `COc1cccn2nc([C@H]3c4nc[nH]c4CCN3c3ncc(C(F)(F)F)cn3)cc12` [Example 2201, (R)-4-(4-methoxypyrazolo[1,5-a]pyridin-2-yl)-5-(5-(trifluoromethyl)pyrimidin-2-yl)-4,5,6,7-tetrahydro-1H-imidazo[4,5-c]pyridine] was run?
A: > 5 µM

Q: `O=C(c1ocnc1C1CC1)N1CCc2[nH]cnc2[C@H]1c1cc2c(F)cccn2n1` [Example 1986, (S)-(4-cyclopropyloxazol-5-yl)(4-(4-fluoropyrazolo[1,5-a]pyridin-2-yl)-1,4,6,7-tetrahydro-5H-imidazo[4,5-c]pyridin-5-yl)methanone] was tested. Which AC50 did it give?
A: < 0.5 µM

Q: For `O=C(c1nnc(-c2ccccn2)o1)N1CCc2[nH]cnc2[C@@H]1c1cc2c(C3CC3)cccn2n1` [Example 1896, (R)-(4-(4-cyclopropylpyrazolo[1,5-a]pyridin-2-yl)-1,4,6,7-tetrahydro-5H-imidazo[4,5-c]pyridin-5-yl)(5-(pyridin-2-yl)-1,3,4-oxadiazol-2-yl)methanone], which AC50 is on record?
A: > 5 µM

Q: Which AC50 does the source give for `FC(F)c1cccn2nc([C@@H]3c4nc[nH]c4CCN3c3cnccn3)cc12` [Example 1817, (S)-4-(4-(difluoromethyl)pyrazolo[1,5-a]pyridin-2-yl)-5-(pyrazin-2-yl)-4,5,6,7-tetrahydro-1H-imidazo[4,5-c]pyridine] here?
A: < 0.5 µM

Q: How did the AC50 turn out when `Cc1cccc2cc([C@@H]3c4nc[nH]c4CCN3c3nnc(C(F)(F)F)o3)nn12` [Example 1850, (S)-2-(4-(7-methylpyrazolo[1,5-a]pyridin-2-yl)-6,7-dihydro-1H-imidazo[4,5-c]pyridin-5(4H)-yl)-5-(trifluoromethyl)-1,3,4-oxadiazole] was run?
A: 0.5 to 1 µM

Q: With `CC(C)c1nnc(N2CCc3[nH]cnc3[C@@H]2c2cc3c(F)cccn3n2)o1` [Example 2322, (R)-2-(4-(4-fluoropyrazolo[1,5-a]pyridin-2-yl)-1,4,6,7-tetrahydro-5H-imidazo[4,5-c]pyridin-5-yl)-5-isopropyl-1,3,4-oxadiazole] as the compound, how does the AC50 read?
A: > 5 µM

Q: For `Cc1cccn2nc([C@H]3c4nc[nH]c4CCN3c3cnccn3)cc12` [Example 1804, (R)-4-(4-methylpyrazolo[1,5-a]pyridin-2-yl)-5-(pyrazin-2-yl)-4,5,6,7-tetrahydro-1H-imidazo[4,5-c]pyridine], which AC50 is on record?
A: 1 to 5 µM

Q: For `Cc1cccnc1-c1nnc(N2CCc3[nH]cnc3[C@@H]2c2cc3c(C)cccn3n2)o1` [Example 2268, (R)-2-(4-(4-methylpyrazolo[1,5-a]pyridin-2-yl)-1,4,6,7-tetrahydro-5H-imidazo[4,5-c]pyridin-5-yl)-5-(3-methylpyridin-2-yl)-1,3,4-oxadiazole], which AC50 is on record?
A: > 5 µM

Q: How did the AC50 turn out when `Cn1ccc(-c2nnc(C(=O)N3CCc4[nH]cnc4[C@H]3c3cc4c(F)cccn4n3)s2)n1` [Example 1995, (S)-(4-(4-fluoropyrazolo[1,5-a]pyridin-2-yl)-1,4,6,7-tetrahydro-5H-imidazo[4,5-c]pyridin-5-yl)(5-(1-methyl-1H-pyrazol-3-yl)-1,3,4-thiadiazol-2-yl)methanone] was run?
A: < 0.5 µM

Same assay, conditions: A375 cells expressing human R408W PAH; 24 hrs compound incubation; 13C-Tyrosine by LC-MS; average where tested multiple times; read-out: AC50

Q: With `O=C(c1nnc(-c2ccn(C(F)(F)F)n2)o1)N1CCc2[nH]cnc2[C@@H]1c1cc2cccc(C(F)F)n2n1` [Example 1545, (R)-(4-(7-(difluoromethyl)pyrazolo[1,5-a]pyridin-2-yl)-6,7-dihydro-1H-imidazo[4,5-c]pyridin-5(4H)-yl)(5-(1-(trifluoromethyl)-1H-pyrazol-3-yl)-1,3,4-oxadiazol-2-yl)methanone] as the compound, how does the AC50 read?
A: 1 to 5 µM

Q: With `CC(C)(O)c1nc(C(F)F)c(C(=O)N2CCc3[nH]cnc3[C@@H]2c2cc3c(Cl)cccn3n2)o1` [Example 701, (R)-(4-(4-chloropyrazolo[1,5-a]pyridin-2-yl)-6,7-dihydro-1H-imidazo[4,5-c]pyridin-5(4H)-yl)(4-(difluoromethyl)-2-(2-hydroxypropan-2-yl)oxazol-5-yl)methanone] as the compound, how does the AC50 read?
A: 1 to 5 µM

Q: How did the AC50 turn out when `CN(C)Cc1ccc2c(C(=O)N3CCc4[nH]cnc4[C@H]3c3cc4c(C(F)(F)F)cccn4n3)cnn2c1` [Example 1546, (S)-(6-((dimethylamino)methyl)pyrazolo[1,5-a]pyridin-3-yl)(4-(4-(trifluoromethyl)pyrazolo[1,5-a]pyridin-2-yl)-6,7-dihydro-1H-imidazo[4,5-c]pyridin-5(4H)-yl)methanone] was run?
A: 0.5 to 1 µM

Q: For `O=C(c1nnc(-c2ccn(C(F)F)n2)o1)N1CCc2[nH]cnc2[C@H]1c1cc2ccccn2n1` [Example 666, (S)-(5-(1-(difluoromethyl)-1H-pyrazol-3-yl)-1,3,4-oxadiazol-2-yl)(4-(pyrazolo[1,5-a]pyridin-2-yl)-6,7-dihydro-1H-imidazo[4,5-c]pyridin-5(4H)-yl)methanone], which AC50 is on record?
A: 0.5 to 1 µM

Q: With `CC(C)(C)c1nnc(C(=O)N2CCc3[nH]cnc3[C@H]2c2cc3c(C(F)(F)F)cccn3n2)o1` [Example 948, (S)-(5-(tert-butyl)-1,3,4-oxadiazol-2-yl)(4-(4-(trifluoromethyl)pyrazolo[1,5-a]pyridin-2-yl)-6,7-dihydro-1H-imidazo[4,5-c]pyridin-5(4H)-yl)methanone] as the compound, how does the AC50 read?
A: < 0.5 µM

Q: How did the AC50 turn out when `CC(C)(C)c1nnc(C(=O)N2CCc3[nH]cnc3[C@H]2c2cc3c(F)cccn3n2)o1` [Example 1027, (S)-(5-(tert-butyl)-1,3,4-oxadiazol-2-yl)(4-(4-fluoropyrazolo[1,5-a]pyridin-2-yl)-6,7-dihydro-1H-imidazo[4,5-c]pyridin-5(4H)-yl)methanone] was run?
A: < 0.5 µM

Q: For `Cc1cccc2cc([C@@H]3c4nc[nH]c4CCN3C(=O)c3oc(C(C)(C)F)nc3C(F)F)nn12` [Example 1230, (S)-(4-(difluoromethyl)-2-(2-fluoropropan-2-yl)oxazol-5-yl)(4-(7-methylpyrazolo[1,5-a]pyridin-2-yl)-6,7-dihydro-1H-imidazo[4,5-c]pyridin-5(4H)-yl)methanone], which AC50 is on record?
A: < 0.5 µM

Q: How did the AC50 turn out when `Cc1ncoc1C(=O)N1CCc2[nH]cnc2[C@H]1c1cc2c(F)cccn2n1` [Example 774, (S)-(4-(4-fluoropyrazolo[1,5-a]pyridin-2-yl)-6,7-dihydro-1H-imidazo[4,5-c]pyridin-5(4H)-yl)(4-methyloxazol-5-yl)methanone] was run?
A: < 0.5 µM

Q: With `O=C(c1oc(-c2ccccn2)nc1C(F)F)N1CCc2[nH]cnc2[C@@H]1c1cc2ccccn2n1` [Example 645, (R)-(4-(difluoromethyl)-2-(pyridin-2-yl)oxazol-5-yl)(4-(pyrazolo[1,5-a]pyridin-2-yl)-6,7-dihydro-1H-imidazo[4,5-c]pyridin-5(4H)-yl)methanone] as the compound, how does the AC50 read?
A: 1 to 5 µM

Q: `O=C(c1nnc(-c2ccn(C(F)F)n2)o1)N1CCc2[nH]cnc2[C@H]1c1cc2c(C(F)(F)F)cccn2n1` [Example 909, (S)-(5-(1-(difluoromethyl)-1H-pyrazol-3-yl)-1,3,4-oxadiazol-2-yl)(4-(4-(trifluoromethyl)pyrazolo[1,5-a]pyridin-2-yl)-6,7-dihydro-1H-imidazo[4,5-c]pyridin-5(4H)-yl)methanone] was tested. Which AC50 did it give?
A: < 0.5 µM

Q: How did the AC50 turn out when `CN(C)c1ccc2c(C(=O)N3CCc4[nH]cnc4[C@@H]3c3cc4c(F)cccn4n3)cnn2c1` [Example 1773, (R)-(6-(dimethylamino)pyrazolo[1,5-a]pyridin-3-yl)(4-(4-fluoropyrazolo[1,5-a]pyridin-2-yl)-6,7-dihydro-1H-imidazo[4,5-c]pyridin-5(4H)-yl)methanone] was run?
A: > 5 µM
